These results are taken from article PMC12174726 (Chemmedchem, 2025).

For one test, the system named is TMD8. Nature of the test: MTT proliferation assay, TMD8. It counts as cell-based. The conditions noted are these: Homo sapiens, TMD8, 72 h treatment, n = 2, read-out: IC50 (cell proliferation). The method, then:
(§1) Lymphoma cell lines were exposed to a large range of concentrations of each compound as single agent for 24 h or 72 h, followed by MTT and after 4 h SDS to stop the reaction. The day after, plates were read using a Cytation 3 plate reader (Biotek) and IC50s were calculated. DMSO was used as a control (untreated). IC50 is defined as the drug concentration giving 50% of proliferating cells compared to vehicle treated cells. IC50 was calculated by fitting the values via nonlinear regression (GraphPad Prism 8.0). Values represent mean ± S.D.
In general terms: Tetrazolium dyes change colour on reduction, which living cells bring about.

Another test deals with H3K27 acetylation. Nature of the test: Western blot of H3K27ac levels in SU‐DHL‐10 cells. The conditions noted are these: 24 h. It counts as cell-based. On the technique in general: Immunoblotting shows a protein as a band on a membrane.
The test system of a further test is SU‐DHL‐16. Nature of the test: MTT proliferation assay, SU‐DHL‐16. In kind it is cell-based. The conditions noted are these: Homo sapiens, SU‐DHL‐16, 72 h treatment, n = 2, read-out: IC50 (cell proliferation). The method, then:
as §1

Test [1] deals with T1, CBP (Homo sapiens, UniProt Q92793). Nature of the test: Western blot of CBP levels in SU‐DHL‐10 cells. In kind it is cell-based. The arrangement: WB analysis of CBP levels in the DLBCL SU‐DHL‐10 cell line; endogenous in cells; host or cells: SU-DHL-10. As for the experimental part: (§2) Following compound treatment for the indicated time frame (4 to 24 h), cells were solubilized, and the protein content was determined using the BCA protein assay (Pierce Chemical Co). Lysates were fractionated by SDS–polyacrylamide gel electrophoresis (SDS‐PAGE). Membranes were incubated with anti‐CBP (CBP (D6C5) Rabbit mAb #7389, Cell Signaling Technology), anti‐p300 (Anti‐KAT3B/p300 antibody (3G230), Abcam) or anti‐GAPDH (GAPDH Monoclonal Antibody (FF26A), Thermo Fisher Scientific) antibodies overnight. This was followed by incubation with the appropriate horseradish peroxidase‐conjugated anti‐mouse or anti‐rabbit secondary antibodies (Cytiva Europe) for 1 h. Enhanced chemiluminescence detection was then done following the manufacturer's instructions. GAPDH was used as a loading control. Images were quantified with the internal software of the Fusion Solo S (Vilber).

Another test deals with WSU‐DLCL2. Nature of the test: MTT proliferation assay, WSU‐DLCL2. It counts as cell-based. The settings on record: Homo sapiens, WSUDLCL2, WSU‐DLCL2, 72 h treatment, n = 2, read-out: IC50 (cell proliferation). The method, then:
as §1

Another test relates to SU‐DHL‐2. Nature of the test: MTT proliferation assay, SU‐DHL‐2. The conditions noted are these: Homo sapiens, SU‐DHL‐2, 72 h treatment, n = 2, read-out: IC50 (cell proliferation). In kind it is cell-based. As for the experimental part:
as §1

Test [2] addresses T1, CBP. Nature of the test: CBP catalytic activity inhibition. The settings on record: means ± S.D., n = 3. It counts as biochemical. An excerpt: (§3) To answer this question, we initially characterized them both for their inhibition of CBP and p300 catalytic activities.
Test [3] deals with T2, p300 (Homo sapiens, UniProt Q09472). Nature of the test: Western blot of p300 levels in SU‐DHL‐10 cells. It counts as cell-based. The arrangement: WB analysis of p300 levels in the SU‐DHL‐10 cell line; endogenous in cells; host or cells: SU-DHL-10. The settings on record: for p300 protein levels (WB): SU‐DHL‐10, increasing concentrations. The method, then: as §2
Test [4] deals with SU‐DHL‐2, SU‐DHL‐16, TMD8, and WSU‐DLCL2. Nature of the test: MTT proliferation assay, additional DLBCL cell lines (summary). It counts as cell-based. The settings on record: 72 h, range over DLBCL cell lines and both compounds, read-out: viability IC50, range over cell lines. As for the experimental part: as §1
The target of test [5] is T2, p300. Nature of the test: p300 catalytic activity inhibition. The conditions noted are these: means ± S.D., n = 3. It counts as biochemical.
Source text: as §3

The test system of a further test is SU‐DHL‐10 cells. Nature of the test: MTT proliferation assay, SU‐DHL‐10. In kind it is cell-based. The settings on record: for IC50: Homo sapiens, n = 2, read-out: IC50 (cell proliferation). As for the experimental part: as §1
For test [6], the system named is histone deacetylases (HDACs). The arrangement: method as in PMID 26718586. The settings on record: cited from earlier work.
For the next test, the system named is neuroblastoma cell. The arrangement: method as in PMID 34772733. The conditions noted are these: cited from earlier work.
Where [7] appears, read: SU-DHL10, SU‐DHL‐10, 24 h treatment.
The mark [8] stands for this setting: SU-DHL10, SU‐DHL‐10, 72 h treatment.

Entries after “also recorded” stand apart in the source; their conditions may differ. Read-outs that look alike come from different tables or passages of the source. Residues, ends and D or L forms follow the SMILES beside them. *: point of attachment. Cbz = O=C(OCc1ccccc1)*

T1 sequence (Q92793 whole entry): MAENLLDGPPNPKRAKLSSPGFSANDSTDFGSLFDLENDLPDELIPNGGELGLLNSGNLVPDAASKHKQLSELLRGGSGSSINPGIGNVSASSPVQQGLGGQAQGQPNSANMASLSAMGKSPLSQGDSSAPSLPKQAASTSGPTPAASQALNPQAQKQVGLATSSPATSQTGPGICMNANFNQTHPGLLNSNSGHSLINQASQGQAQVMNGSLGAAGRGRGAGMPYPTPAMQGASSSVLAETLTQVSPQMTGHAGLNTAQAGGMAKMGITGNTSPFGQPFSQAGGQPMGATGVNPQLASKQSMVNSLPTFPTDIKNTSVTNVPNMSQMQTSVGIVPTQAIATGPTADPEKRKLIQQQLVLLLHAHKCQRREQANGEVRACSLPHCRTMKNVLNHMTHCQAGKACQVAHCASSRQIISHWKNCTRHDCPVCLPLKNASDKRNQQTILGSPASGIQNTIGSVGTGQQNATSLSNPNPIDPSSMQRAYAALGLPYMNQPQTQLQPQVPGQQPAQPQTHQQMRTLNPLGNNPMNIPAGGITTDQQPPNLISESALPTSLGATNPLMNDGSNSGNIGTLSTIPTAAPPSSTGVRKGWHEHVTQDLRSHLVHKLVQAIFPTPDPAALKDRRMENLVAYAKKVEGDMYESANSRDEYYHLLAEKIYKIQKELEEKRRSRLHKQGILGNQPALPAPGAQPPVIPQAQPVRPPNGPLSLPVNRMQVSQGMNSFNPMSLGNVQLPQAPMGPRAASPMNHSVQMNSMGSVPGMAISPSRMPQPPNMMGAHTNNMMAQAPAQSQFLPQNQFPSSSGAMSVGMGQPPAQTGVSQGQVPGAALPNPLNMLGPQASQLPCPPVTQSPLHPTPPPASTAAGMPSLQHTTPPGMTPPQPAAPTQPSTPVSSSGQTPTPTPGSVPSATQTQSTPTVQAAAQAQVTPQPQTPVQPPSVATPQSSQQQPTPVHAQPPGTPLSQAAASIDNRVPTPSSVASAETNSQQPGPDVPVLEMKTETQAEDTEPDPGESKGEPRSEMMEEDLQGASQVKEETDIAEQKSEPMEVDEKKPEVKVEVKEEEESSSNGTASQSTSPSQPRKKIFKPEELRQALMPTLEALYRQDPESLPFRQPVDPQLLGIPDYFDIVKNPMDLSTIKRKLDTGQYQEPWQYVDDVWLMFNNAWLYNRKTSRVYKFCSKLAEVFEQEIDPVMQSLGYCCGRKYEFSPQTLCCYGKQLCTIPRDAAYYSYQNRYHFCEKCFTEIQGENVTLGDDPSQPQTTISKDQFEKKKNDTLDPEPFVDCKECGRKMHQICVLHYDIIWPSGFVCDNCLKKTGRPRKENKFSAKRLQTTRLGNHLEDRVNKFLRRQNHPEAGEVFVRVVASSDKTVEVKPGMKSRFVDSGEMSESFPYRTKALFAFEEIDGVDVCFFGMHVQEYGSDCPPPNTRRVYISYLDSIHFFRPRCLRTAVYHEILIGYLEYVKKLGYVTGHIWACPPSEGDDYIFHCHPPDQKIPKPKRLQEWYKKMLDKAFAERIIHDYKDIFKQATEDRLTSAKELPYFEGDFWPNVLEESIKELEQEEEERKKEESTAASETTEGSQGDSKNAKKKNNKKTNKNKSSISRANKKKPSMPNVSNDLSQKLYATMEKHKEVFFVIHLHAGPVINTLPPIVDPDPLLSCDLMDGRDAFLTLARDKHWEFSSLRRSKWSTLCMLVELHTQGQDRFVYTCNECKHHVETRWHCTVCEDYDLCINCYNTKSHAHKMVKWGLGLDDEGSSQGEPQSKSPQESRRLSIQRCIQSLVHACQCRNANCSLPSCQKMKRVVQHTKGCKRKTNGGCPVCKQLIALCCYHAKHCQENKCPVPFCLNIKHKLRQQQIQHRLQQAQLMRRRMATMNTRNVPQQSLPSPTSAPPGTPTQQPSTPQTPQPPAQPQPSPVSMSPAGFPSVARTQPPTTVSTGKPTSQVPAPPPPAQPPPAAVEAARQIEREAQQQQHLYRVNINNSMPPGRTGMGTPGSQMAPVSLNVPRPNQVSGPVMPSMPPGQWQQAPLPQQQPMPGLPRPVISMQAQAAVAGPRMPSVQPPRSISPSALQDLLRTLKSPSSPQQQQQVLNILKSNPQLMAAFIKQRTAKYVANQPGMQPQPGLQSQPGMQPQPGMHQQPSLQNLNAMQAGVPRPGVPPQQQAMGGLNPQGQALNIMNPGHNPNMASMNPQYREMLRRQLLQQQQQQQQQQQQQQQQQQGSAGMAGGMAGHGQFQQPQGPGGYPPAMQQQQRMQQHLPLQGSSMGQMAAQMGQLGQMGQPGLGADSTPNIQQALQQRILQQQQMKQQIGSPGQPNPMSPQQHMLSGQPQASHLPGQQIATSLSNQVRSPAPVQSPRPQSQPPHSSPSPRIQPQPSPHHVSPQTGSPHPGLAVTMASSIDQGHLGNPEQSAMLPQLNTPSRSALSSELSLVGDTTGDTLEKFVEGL
T2 sequence (Q09472 whole entry): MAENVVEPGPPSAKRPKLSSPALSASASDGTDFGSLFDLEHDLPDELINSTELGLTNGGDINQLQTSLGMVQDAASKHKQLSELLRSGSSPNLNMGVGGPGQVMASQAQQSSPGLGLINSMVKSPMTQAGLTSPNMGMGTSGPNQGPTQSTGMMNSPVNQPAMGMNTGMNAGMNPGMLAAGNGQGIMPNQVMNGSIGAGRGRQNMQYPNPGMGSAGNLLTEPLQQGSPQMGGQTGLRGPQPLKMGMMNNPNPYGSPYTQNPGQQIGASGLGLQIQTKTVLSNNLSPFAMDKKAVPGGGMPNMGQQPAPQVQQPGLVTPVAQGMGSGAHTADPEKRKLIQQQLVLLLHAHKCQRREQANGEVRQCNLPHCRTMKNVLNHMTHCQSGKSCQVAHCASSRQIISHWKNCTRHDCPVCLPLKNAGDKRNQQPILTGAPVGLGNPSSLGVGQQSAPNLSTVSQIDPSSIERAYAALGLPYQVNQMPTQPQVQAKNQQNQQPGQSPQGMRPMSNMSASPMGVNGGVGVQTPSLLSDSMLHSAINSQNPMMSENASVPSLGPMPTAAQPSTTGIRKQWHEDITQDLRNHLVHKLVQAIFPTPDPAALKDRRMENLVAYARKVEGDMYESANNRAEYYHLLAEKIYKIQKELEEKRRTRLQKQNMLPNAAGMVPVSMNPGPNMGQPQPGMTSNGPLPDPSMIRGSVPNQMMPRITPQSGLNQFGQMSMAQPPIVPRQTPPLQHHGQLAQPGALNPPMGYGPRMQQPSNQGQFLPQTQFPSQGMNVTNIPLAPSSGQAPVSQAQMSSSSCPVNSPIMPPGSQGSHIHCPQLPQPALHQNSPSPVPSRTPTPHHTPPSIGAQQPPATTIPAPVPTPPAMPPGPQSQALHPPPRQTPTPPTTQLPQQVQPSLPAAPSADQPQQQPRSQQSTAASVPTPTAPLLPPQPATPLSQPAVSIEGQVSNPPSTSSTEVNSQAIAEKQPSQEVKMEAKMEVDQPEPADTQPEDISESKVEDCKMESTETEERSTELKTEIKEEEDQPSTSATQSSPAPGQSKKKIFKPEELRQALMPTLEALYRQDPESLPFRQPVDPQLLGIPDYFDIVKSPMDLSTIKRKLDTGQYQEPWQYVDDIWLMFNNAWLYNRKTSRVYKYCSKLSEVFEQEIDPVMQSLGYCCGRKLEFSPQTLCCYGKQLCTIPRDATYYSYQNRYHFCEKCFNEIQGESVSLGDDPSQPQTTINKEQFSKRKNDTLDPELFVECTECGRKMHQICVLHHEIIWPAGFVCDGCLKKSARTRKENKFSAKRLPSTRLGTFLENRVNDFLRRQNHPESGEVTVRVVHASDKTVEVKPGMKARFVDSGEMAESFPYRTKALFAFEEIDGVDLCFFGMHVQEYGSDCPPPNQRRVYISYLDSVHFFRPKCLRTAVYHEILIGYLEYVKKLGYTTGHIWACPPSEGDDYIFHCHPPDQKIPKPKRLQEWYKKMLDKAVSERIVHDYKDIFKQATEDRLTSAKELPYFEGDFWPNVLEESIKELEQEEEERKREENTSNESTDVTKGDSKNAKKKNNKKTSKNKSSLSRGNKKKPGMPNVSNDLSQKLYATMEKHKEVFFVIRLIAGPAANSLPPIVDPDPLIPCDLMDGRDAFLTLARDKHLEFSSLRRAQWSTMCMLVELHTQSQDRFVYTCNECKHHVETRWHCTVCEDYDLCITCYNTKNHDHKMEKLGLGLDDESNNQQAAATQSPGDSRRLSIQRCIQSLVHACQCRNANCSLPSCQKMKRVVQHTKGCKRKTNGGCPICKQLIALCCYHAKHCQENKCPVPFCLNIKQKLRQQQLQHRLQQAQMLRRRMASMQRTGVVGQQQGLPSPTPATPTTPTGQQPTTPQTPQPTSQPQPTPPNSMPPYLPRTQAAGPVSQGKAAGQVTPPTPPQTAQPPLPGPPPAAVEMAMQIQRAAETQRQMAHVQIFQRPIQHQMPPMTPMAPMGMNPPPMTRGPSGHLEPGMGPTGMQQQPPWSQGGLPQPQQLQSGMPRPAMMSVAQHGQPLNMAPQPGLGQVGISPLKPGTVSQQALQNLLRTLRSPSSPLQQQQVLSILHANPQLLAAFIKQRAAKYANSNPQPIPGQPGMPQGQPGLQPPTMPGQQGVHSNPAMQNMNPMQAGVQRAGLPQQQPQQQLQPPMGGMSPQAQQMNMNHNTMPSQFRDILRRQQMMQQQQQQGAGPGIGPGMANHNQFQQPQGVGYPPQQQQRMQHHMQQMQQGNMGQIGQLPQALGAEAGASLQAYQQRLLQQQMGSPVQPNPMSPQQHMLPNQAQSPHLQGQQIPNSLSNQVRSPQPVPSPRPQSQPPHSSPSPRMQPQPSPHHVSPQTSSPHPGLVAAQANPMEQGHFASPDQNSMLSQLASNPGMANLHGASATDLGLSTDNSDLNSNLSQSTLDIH

For `CC1=NN(c2ccc(C(=O)NCCCOCCOCCOCCCNC(=O)COc3cccc4c3C(=O)N(C3CCC(=O)NC3=O)C4=O)cc2)C(=O)/C1=C\c1ccc(-c2cc(C)c(C)cc2[N+](=O)[O-])o1` (centres unmarked) [Compound 1, (Z)‐4‐(4‐((5‐(4,5‐dimethyl‐2‐nitrophenyl)furan‐2‐yl)methylene)‐3‐methyl‐5‐oxo‐4,5‐dihydro‐1 H‐pyrazol‐1‐yl)‐N‐(1‐((2‐(2,6‐dioxopiperidin‐3‐yl)‐1,3‐dioxoisoindolin‐4‐yl)oxy)‐2‐oxo‐7,10,13‐trioxa‐3‐azahexadecan‐16‐yl)benzamide], the IC50 in the test on TMD8 was 1.95 ± 0.069 µM; with SU‐DHL‐16, 2.99 ± 0.19 µM; in the test with WSU‐DLCL2 it was 3.24 ± 0.28 µM; with SU‐DHL‐2 it was 2.05 ± 0.068 µM; against CBP [2], 0.6 to 0.9 µM; in test [4] it was 2 to 8 µM. Moreover, the IC50 was 0.6 to 0.9 µM at p300 [5], 3.44 ± 0.12 µM with SU‐DHL‐10 cells (setting [7]) and 2.73 ± 0.072 µM in the test on SU‐DHL‐10 cells (setting [8]). Moreover, the H3K27 acetylation result in the test on H3K27 acetylation (SU‐DHL‐10, 5 μM) was “decreased H3K27 acetylation”. The “CBP levels (WB)” value on CBP [1] (SU‐DHL‐10, 2.5 μM, 8 h) was “reduced the levels of CBP; also recorded: decreased the levels of CBP”; on CBP [1] (SU‐DHL‐10, 2.5 μM, 24 h), “returned to the initial levels”. Also, the “decrease of protein (CBP) levels” value at CBP [1] (SU‐DHL‐10, 10 μM, 24 h) was “roughly 70%”. Moreover, the “CBP levels (WB), combination with C646” value on CBP [1] (SU‐DHL‐10, 1 2.5 μM + C646 10 μM, 8 h) was “did not affect CBP levels”. Also, on CBP [1] (SU‐DHL‐10, 1 2.5 μM + MG132 10 μM, 8 h), the “CBP degradation (WB), co‐incubation with MG132” value was “abolishes 1‐induced CBP degradation”. At CBP [1] (SU‐DHL‐10, increasing concentrations, 24 h), the “CBP protein levels (WB)” value is recorded as “dose‐dependent reduction; also recorded: slightly better efficacy on CBP compared to the previously reported PROTAC JQAD1”. Besides, the “p300 levels (WB)” value was “decreased protein levels” on p300 [3] (SU‐DHL‐10, 2.5 μM, 8 h); “no difference was observed” on p300 [3] (SU‐DHL‐10, 2.5 μM, 24 h); “significantly reduced p300 levels” on p300 [3] (SU‐DHL‐10, 10 μM, 24 h). Moreover, the “p300 protein levels (WB)” value at p300 [3] (24 h) was “dose‐dependent reduction”.
For the compound `CC1=NN(c2ccc(C(=O)NCCOCCOCCNC(=O)COc3cccc4c3C(=O)N(C3CCC(=O)NC3=O)C4=O)cc2)C(=O)/C1=C\c1ccc(-c2cc(C)c(C)cc2[N+](=O)[O-])o1` (centres unmarked) [Compound 2, (Z)‐4‐(4‐((5‐(4,5‐dimethyl‐2‐nitrophenyl)furan‐2‐yl)methylene)‐3‐methyl‐5‐oxo‐4,5‐dihydro‐1 H‐pyrazol‐1‐yl)‐N‐(2‐(2‐(2‐(2‐((2‐(2,6‐dioxopiperidin‐3‐yl)‐1,3‐dioxoisoindolin‐4‐yl)oxy)acetamido)ethoxy)ethoxy)ethyl)benzamide], the IC50 was 7.81 ± 3.04 µM in the test with TMD8; 8.02 ± 2.46 µM in the test on SU‐DHL‐16; 5.23 ± 0.85 µM in the test with WSU‐DLCL2; 4.96 ± 0.33 µM with SU‐DHL‐2; 0.6 to 0.9 µM at CBP [2]; 2 to 8 µM in [4]. For the same compound, the IC50 was 0.6 to 0.9 µM at p300 [5], 6.44 ± 0.81 µM in the test with SU‐DHL‐10 cells (setting [7]) and 6.34 ± 1.76 µM with SU‐DHL‐10 cells (setting [8]). For the same compound, the “CBP levels (WB)” value is recorded as “slightly less active” at CBP [1] (SU‐DHL‐10, 2.5 μM, 8 h) and “returned to the initial levels” on CBP [1] (SU‐DHL‐10, 2.5 μM, 24 h). For the same compound, the “decrease of protein (CBP) levels” value on CBP [1] (SU‐DHL‐10, 10 μM, 24 h) is reported as “roughly 70%”. Besides, the “p300 levels (WB)” value is “decreased protein levels” on p300 [3] (SU‐DHL‐10, 2.5 μM, 8 h); “no difference was observed” on p300 [3] (SU‐DHL‐10, 2.5 μM, 24 h); “significantly reduced p300 levels” on p300 [3] (SU‐DHL‐10, 10 μM, 24 h).
In the case of `CNC(=O)Nc1ccc2c(c1)CC[C@@]21OC(=O)N(CC(=O)N(Cc2ccc(F)cc2)[C@@H](C)C(F)(F)F)C1=O` [Compound A485, A‐485], the H3K27 acetylation result with H3K27 acetylation (SU‐DHL‐10, 5 and 10 μM) is given as “reduced H3K27 acetylation in a dose‐dependent fashion”.
Turning to `CC1=NN(c2ccc(C(=O)O)cc2)C(=O)/C1=C\c1ccc(-c2cc(C)c(C)cc2[N+](=O)[O-])o1` [Compound C646, C646, reference compound], in the test on H3K27 acetylation (SU‐DHL‐10, 5 and 10 μM), the H3K27 acetylation result is on record as “did not reduce acetylation”. The “CBP levels (WB)” value on CBP [1] (SU‐DHL‐10, 10 μM, 8 h) was “no effect on CBP levels”. Moreover, in test [6], the “inhibition of histone deacetylases (HDACs)” value is on record as “inhibit histone deacetylases (HDACs) at low micromolar concentrations”. The IC50 against CBP [2] is 0.21 ± 0.01 µM; in the test on SU‐DHL‐10 cells (setting [7]), 12.2 ± 3.02 µM.
In the case of `CC(C)C[C@@H](C=O)NC(=O)[C@H](CC(C)C)NC(=O)[C@H](CC(C)C)NC(=O)OCc1ccccc1` [MG132, reference compound] (Cbz-Leu-Leu-Leu-aldehyde), the IC50 in the test with SU‐DHL‐10 cells (setting [7]) amounted to 0.144 ± 0.002 µM.
As for `O=C1CCC(N2C(=O)c3ccccc3C2=O)C(=O)N1` (centres unmarked) [Thalidomide, thalidomide, reference compound], in the test on SU‐DHL‐10 cells (setting [7]), the IC50 was > 20 µM. The “effect on cell viability” value with SU‐DHL‐10 cells (SU‐DHL‐10, 24 h, up to 20 μM) was “no significant effects on cell viability”.
JQAD1: the H3K27 acetylation result in the test with H3K27 acetylation (SU‐DHL‐10, 5 and 10 μM) is “reduced H3K27 acetylation in a dose‐dependent fashion”. Besides, the “IC50, neuroblastoma cell viability” value in the test on neuroblastoma cell is reported as “nanomolar range”. The “p300 protein levels (WB)” value at p300 [3] (24 h) is listed as “slightly higher potency”.
